The subject of test [1] is Dox-dependent porcine iPSCs. Put plainly: Dox removal from Dox-dependent porcine iPSCs. The test is classed as cell-based. As to conditions: upon Dox removal. The method, then:
Germany Landrace and China TAIHU OCT4-TD-tomato [2] Porcine fetal fibroblasts (PFFs) were plated on gelatinized 15-cm tissue culture plates and cultured in M20 media. They were trypsinized with 0.25% trypsin/EDTA solution (Gibco, Cat. No. 25500-054) and harvested for electroporation at 80% confluence. M20: knockout DMEM (Gibco, Cat. No. 10829-018), 20% FBS (Gibco, Cat. No. 10270), 1× Glutamine Penicillin-Streptomycin (Thermo Fisher Scientific, Cat. No. 11140-050) and 1×NEAA (Thermo Fisher Scientific, Cat. No. 10378-016). The transfections were performed using an Amaxa Nucleofector machine (Lonza) according to the manufacturer's protocol (NHDF Nucleofector® Kit, Cat. No. VPD-1001, program U-20). piggyBac transposition was used to achieve stable integration of reprogramming factors. The expression of the reprogramming factors was under the transcriptional control of the tetO2 tetracycline/doxycycline inducible promoter. 1.5 million PFFs and 6.0 μg DNA (2.0 μg PB-TRE-pOSCK, Porcine OCT4, SOX2, cMYC and KLF4; 1.0 μg PB-TRE-pNhL, 1.0 μg PB-TRE-hRL: human RARG and TRH1, 1.0 μg PB-EF1a-transposase and 1.0 μg PB-EF1a-rTTA) were used in each electroporation reaction. PB-TRE-pOSCK: cDNAs of porcine OCT4, SOX2, cMYC and KLF4 linked by 2A sequence were expressed as a single transcript from the tetO2 promoter. […]

For a further test, the system named is pEPSCs^Emb. The test can be described thus: Requirement of individual culture components for pEPSCs (RT-qPCR, AP+ colony formation). It counts as cell-based, porcine. The note with it: withdrawal from medium, porcine EPSCs. The method, then:
(§1) Porcine and human EPSC cultures were routinely maintained on STO feeders. STO feeder plates were prepared 3-4 days before passaging by thawing and plating the mitomycin C inactivated STO cells on 0.1% gelatinised plates at the density of ˜1.1×10^4 cells/cm^2. Porcine/human EPSC cells were maintained on STO feeder layers and enzymatically passaged every 3-5 days by a brief PBS wash followed by treatment for 3-5 minutes with 0.25% trypsin/EDTA (Gibco, Cat. No. 25500-054). The cells were dissociated and centrifuged (300 g×5 minutes) in M10 medium. M10: knockout DMEM (Gibco, Cat. No. 10829-018), 10% FBS (Gibco, Cat. No. 10270), 1× Glutamine Penicillin-Streptomycin (Thermo Fisher Scientific, Cat. No. 11140050) and 1×NEAA (Thermo Fisher Scientific, Cat. No. 10378-016). After removing supernatant, the porcine/human EPSCs were re-suspended and seeded in pEPSCM/hEPSCM supplemented with 5 μM ROCK inhibitor Y-27632 (Tocris, Cat. No. 1254). 5% FBS (Gibco, Cat. No. 10270) and 10% KnockOut Serum Replacement (KSR) (Gibco, Cat. No. 10828028) were added in pEPSCM and hEPSCM respectively to improve cells survive. 12-24 hours later, medium was switched to pEPSCM/hEPSCM only. Both pEPSCM and hEPSCM are N2B27 based media. N2B27 basal media (500 ml) was prepared by inclusion of the following components: 482.5 ml DMEM/F-12 (Gibco, Cat. No. 21331-020), 2.5 ml N2 supplement (Thermo Fisher Scientific, Cat. No. 17502048), 5 ml B27 supplement (Thermo Fisher Scientific, Cat. No. 17504044), 5 ml 1× Glutamine Penicillin-Streptomycin (Thermo Fisher Scientific, Cat. No. 11140-050), and 5 ml 1×NEAA (Thermo Fisher Scientific, Cat. No. 10378-016), 0.1 mM 2-mercaptoethanol (Sigma, Cat. No. M6250). pEPSCM (500 ml) was generated by adding the following small molecules and cytokines into 500 ml N2B27 basal media: 0.2 μM CHIR99021(GSK3i, TOCRIS, Cat. No. 4423), 1 μM WH-4-023 (SRC inhibitor, TOCRIS, Cat. No. 5413), 2.5 μM XAV939 (Sigma, Cat. No. X3004) or 2.5 μM IWR-1 (TOCRIS, Cat. No. 3532), […] Vitamin C (Sigma, Cat. No. 49752-100G), 10 ng/ml LIF (Stem Cell Institute, University of Cambridge. SCI) and 20 ng/ml ACTIVIN (SCI). hEPSCM (500 ml) was generated by adding the following components into 500 ml N2B27 basal media: 1.0 μM CHIR99021(GSK3 inhibitor, TOCRIS, Cat. No. 4423), 0.5 μM A-419259 (SRC inhibitor, TOCRIS, Cat. No. 3914), 2.5 μM XAV939 (Sigma, Cat. No. X3004), […] Vitamin C (Sigma, Cat. No. 49752-100G), 10 ng/ml LIF (SCI). Although both targeting SRC family kinases (SFKs), WH-4-023 and A419259 were preferred for porcine and human EPSCs, respectively. […] The concentrations of CHIR99021 for porcine and human EPSC cultures are 0.2 μM and 1.0 μM, respectively. […] 0.25 μM SB 590885 (BRAF inhibitor, R&D, Cat. No. 2650) and 2.0 μM SP600125 ([…], TOCRIS, Cat. No. 1496) were included to improve porcine and human EPSC cultures, but they were not essential for the routine maintenance of porcine and human EPSCs. All cell cultures in this paper were performed under conditions of 37° C. and 5% CO2 unless stated otherwise.
(§2) Total RNA was isolated using an RNeasy Mini Kit (Qiagen, Cat. No. 74106) for cultured cells or RNeasy Micro Kit (Qiagen, Cat. No. 74034) for sorted NANOS3-mCherry^+ cells. RNA was subsequently quantified and treated with gDNA WipeOut to remove genomic DNA. Complementary DNA (cDNA) was prepared using a QuantiTect Reverse Transcription Kit (Qiagen, Cat. No. 205311). RT-qPCR primers or TaqMan Gene Expression Assays (Life Technologies) are listed in Supplementary Table 10 and 11. ABsolute Blue qPCR ROX Mix (ABgene, Cat. No. AB4138B) were used for probe based qPCR assays and SYBR Green ROX qPCR Mastermix (Qiagen, Cat. No. 330523) were used for primer based qPCR assays. All qPCR reactions were performed on ABI 7900 HT Sequence Detection System (Life Technologies). Information on all primers and probes used for qPCR analysis are provided in Supplementary Table 10 and 11. Gene expression was determined relative to GAPDH using the […]. […]
(Quantitative PCR measures a nucleic acid by following its amplification.)

Test [2] has as its system AXIN1. Put plainly: Western blot analysis of AXIN1 in human EPSCs. It counts as cell-based. The method, then: (§3) Whole-cell extracts were prepared from cells with indicated treatments in lysis buffer composed of 50 mM Tris-HCl (pH 7.5), 0.15M NaCl, 0.1% SDS, 1% Triton X-100, 1% sodium deoxycholate and complete mini EDTA free protease inhibitor cocktail (Roche Applied Science, Cat. No. 11836170001). The cells for the experiment were collected from the same batch of culture when the culture had reached 70-80% confluence. The biological replicates were included to allow the meaningful conclusions. 10 μg protein were used for electrophoresis and transferred to nitrocellulose membranes. Membranes were blocked with 5% milk and treated with antibodies. Primary antibodies of mouse or rabbit anti AXIN1, SMAD2/3, p-SMAD2/3 and ALPHA-TUBULIN were used. Horseradish peroxidase-conjugated secondary antibodies against rabbit or mouse IgG were added. After antibody treatment, blots were developed using ECL Western Blotting Detection System (Thermo Fisher Scientific, Cat. No. 32106). The antibodies used in these experiments is provided in Supplementary Table 9.

The next test relates to H1-EPSCs. Put plainly: Requirement of individual culture components for hEPSCs (RT-qPCR, AP+ colony formation). The test is classed as cell-based, human. The note with it: withdrawal from medium, human EPSCs. The method, then: as §1, §2
The subject of test [3] is canonical Wnt signalling. Put plainly: TOPflash luciferase assay in porcine EPSCs. It counts as cell-based. On the procedure: (§4) For the TOPflash assay, 2.0×10^6 cells were transfected with 10 μg TOPflash plasmid. 5 μg pRL-TK (Renilla) vectors were also transfected for normalization. Cells were split 1:9 into a 24-well plate in pEPSCM and hEPSCM with or without XAV939 (WNTi, 2.5 μM, Cat. No. X3004) for 48 h. Cell lysates were collected for luciferase assays. For determining the regulation pattern of Oct4 expression in porcine EPSCs, 10 μg reporter constructs were electroporated into 1.5×10^6 pEPSCs with 5 μg pRL-TK. Assays were performed 48 h later. All luciferase assays were performed using the Dual-Glo Luciferase Assay System (Promega, Cat. No. E2920).

The test system of test [4] is AXIN1. Put plainly: Western blot analysis of AXIN1 in porcine EPSCs. The test is classed as cell-based. The method, then:
as §3
Background: In western blotting, separated proteins are transferred to a membrane and probed.

Test [5] concerns canonical Wnt signalling. Put plainly: TOPflash luciferase assay in human EPSCs. It counts as cell-based. The method, then: as §4

Regarding `C[C@H]1c2cccc(O)c2C(=O)C2=C(O)[C@]3(O)C(=O)C(C(N)=O)=C(O)[C@@H](N(C)C)[C@@H]3[C@@H](O)[C@@H]21` [Dox, Doxycycline], in test [1], the “time to differentiation of iPSCs” value lay in the range of 4 to 5 days.

In the case of `Oc1nc(-c2ccc(C(F)(F)F)cc2)nc2c1CSCC2` [XAV939], the “state of EPSCs on withdrawal of the compound” value was “collapse and differentiation” in the test on pEPSCs^Emb; “collapse and differentiation” in the test on H1-EPSCs. Also, the AXIN1 protein content result with AXIN1 [2] and in the test on AXIN1 [4] was “enhanced” throughout. The “canonical WNT activities” value with canonical Wnt signalling [3] (porcine EPSCs) and with canonical Wnt signalling [5] (human EPSCs) was “reduced” in each case. The TOPflash activity result with canonical Wnt signalling [3] (removing XAV939 from pEPSCM for 5 days) and with canonical Wnt signalling [5] (removing XAV939 from hEPSCM for 5 days) was “substantially increased” each time.
